Results on one molecule are retold here after ChEMBL document CHEMBL1268996, “Apoptotic action of ursolic acid isolated from Corni fructus in RC-58T/h/SA#4 primary human prostate cancer cells” (2010).

The structures appear in SMILES notation. The source made the active and inactive calls. The rule behind the calls is not given here.

For assay [1], the species on record is Homo sapiens. Put plainly: Antiproliferative activity against human RC-58T/h/SA#4 cells after 24 to 72 hrs SRB assay. It counts as functional, cell-based.
The nature of assay [2]: Induction of apoptosis in human RC-58T/h/SA#4 cells assessed as increase in sub-G1 DNA content at 40 ug/ml after 24 hrs by flow cytometry. It counts as functional.
The species entered for assay [3] is Homo sapiens. Put plainly: Induction of apoptosis in human RC-58T/h/SA#4 cells assessed as chromatin condensation at 30 to 40 uM after 24 hrs by Hoechst 33258 staining. The format is functional, cell-based.
Assay [4] is filed under the species Homo sapiens. The experiment in a line: Induction of apoptosis in human RC-58T/h/SA#4 cells assessed as AIF translocation into nucleus at 30 to 40 uM by Western blot analysis. It counts as functional, cell-based. (Immunoblotting shows a protein as a band on a membrane.)
The species entered for assay [5] is Homo sapiens. The experiment in a line: Induction of apoptosis in human RC-58T/h/SA#4 cells assessed as PARP cleavage by Western blot analysis. The format is functional, cell-based.
Assay [6] is described as follows: Induction of apoptosis in human RC-58T/h/SA#4 cells assessed as caspase 8 activation at 40 uM by fluorometric protease assay relative to control. It counts as functional.
Assay [7] is filed under the species Homo sapiens. Put plainly: Induction of apoptosis in human RC-58T/h/SA#4 cells assessed as caspase 8-mediated Bid protein cleavage at 30 to 40 uM by Western blot analysis. The format is functional, cell-based.
The species named for assay [8] is Homo sapiens. The experiment in a line: Induction of apoptosis in human RC-58T/h/SA#4 cells assessed as increase in sub-G1 DNA content after 24 hrs by flow cytometry. The format is functional, cell-based. Background: In flow cytometry, cells or beads pass a laser one at a time.
The species named for assay [9] is Homo sapiens. Put plainly: Induction of apoptosis in human RC-58T/h/SA#4 cells assessed as PARP cleavage by Western blot analysis in presence of 10 uM Z-VAD-fmk caspase inhibitor. It counts as functional, cell-based.
Assay [10] can be described thus: Induction of apoptosis in human RC-58T/h/SA#4 cells assessed as increase in sub-G1 DNA content at 10 ug/ml after 24 hrs by flow cytometry. The format is functional.
The species named for assay [11] is Homo sapiens. Put plainly: Antiproliferative activity against human RC-58T/h/SA#4 cells at >= 30 uM SRB assay. It counts as functional, cell-based. The note with it: TDE = time-dependent effect. (In general: The SRB assay estimates cell density from bound dye.)
The species entered for assay [12] is Homo sapiens. The experiment in a line: Antiproliferative activity against human RC-58T/h/SA#4 cells assessed as decrease in viable cells by trypan blue assay. The format is functional, cell-based.
Assay [13] is filed under the species Homo sapiens. Put plainly: Induction of apoptosis in human RC-58T/h/SA#4 cells assessed as nuclear fragmentation at 30 to 40 uM after 24 hrs by Hoechst 33258 staining. The format is functional, cell-based.
The nature of assay [14]: Induction of apoptosis in human RC-58T/h/SA#4 cells assessed as caspase 9 activation at 40 uM by fluorometric protease assay relative to control. It counts as functional.
For assay [15], the species on record is Homo sapiens. The experiment in a line: Induction of apoptosis in human RC-58T/h/SA#4 cells assessed as DNA fragmentation ladder at 30 to 40 uM after 24 hrs by agarose gel electrophoresis. It counts as functional, cell-based.
A short description of assay [16]: Induction of apoptosis in human RC-58T/h/SA#4 cells assessed as increase in sub-G1 DNA content at 20 ug/ml after 24 hrs by flow cytometry. The format is functional.
For assay [17], the species on record is Homo sapiens. Put plainly: Induction of apoptosis in human RC-58T/h/SA#4 cells assessed as decrease in anti-apoptotic protein Bcl-2 at 30 to 40 uM by Western blot analysis. It counts as functional, cell-based.
Assay [18] is described as follows: Induction of apoptosis in human RC-58T/h/SA#4 cells assessed as increase in sub-G1 DNA content at 30 ug/ml after 24 hrs by flow cytometry. It counts as functional.
The species entered for assay [19] is Homo sapiens. The experiment in a line: Induction of apoptosis in human RC-58T/h/SA#4 cells assessed as increase in pro-apoptotic protein Bax at 30 to 40 uM by Western blot analysis. It counts as functional, cell-based.
A short description of assay [20]: Induction of apoptosis in human RC-58T/h/SA#4 cells assessed as caspase 3 activation at 40 uM by fluorometric protease assay relative to control. The format is functional.

For the molecule `C[C@H]1[C@H](C)CC[C@]2(C(=O)O)CC[C@]3(C)C(=CC[C@@H]4[C@@]5(C)CC[C@H](O)C(C)(C)[C@@H]5CC[C@]43C)[C@H]12` [URSOLIC ACID], the Activity entry in the assay listed under Homo sapiens [1] was “Dose-dependent effect”; in assay [2] it was 58.6%; in the assay listed under Homo sapiens [8], “Dose-dependent effect”; in [10] it was 5.41%; in the assay listed under Homo sapiens [11] it was “tde”; in the assay filed under Homo sapiens [12], “Dose-dependent effect”. Besides, the results for the Activity in [16] and in assay [18] were 20.83% and 48.1%, respectively. Also, the outcome in the assay listed under Homo sapiens [3], in the assay filed under Homo sapiens [4], in the assay listed under Homo sapiens [5], in the assay listed under Homo sapiens [7], in the assay listed under Homo sapiens [13] and in the assay filed under Homo sapiens [15] was Active. Besides, the outcome in the assay listed under Homo sapiens [17] and in the assay filed under Homo sapiens [19] was Active. The “fold change (FC)” value was 1.8 in [6], 1.1 in assay [14] and 1.8 in [20]. The result in the assay filed under Homo sapiens [9] was inactive.
